Patent publication US20160355483A1, “COMPOUND BINDING TO PPARG BUT NOT ACTING AS PROMOTER AND PHARMACEUTICAL COMPOSITION FOR TREATING PPARG-RELATED DISEASES CONTAINING SAME AS ACTIVE INGREDIENT” (Hyundai Pharm Co., Ltd., priority 2014, published 2016)
“Also recorded” adds a separate entry of the source.

Assays:
[1] = molecular target: T1, PPARG (peroxisome proliferator activated receptor-gamma), GST-PPARG-LBD (Homo sapiens, UniProt P37231); assay: LanthaScreen TR-FRET PPARG Competitive Binding Assay; set-up: key: “+” indicates the degree of the binding activity, and as the number of “+” increases, the binding activity is stronger; ++: “+” indicates the degree of the binding activity, and as the number of “+” increases, the binding activity is stronger; +++: “+” indicates the degree of the binding activity, and as the number of “+” increases, the binding activity is stronger; ++++: “+” indicates the degree of the binding activity, and as the number of “+” increases, the binding activity is stronger; conditions: degree of binding activity
T1 construct: 15 μL of 5 nM GST-PPARG-LBD and 5 nM Tb-GST-antibody were added; purchased Invitrogen PV4894
T1 sequence (P37231 238-503 limits assumed): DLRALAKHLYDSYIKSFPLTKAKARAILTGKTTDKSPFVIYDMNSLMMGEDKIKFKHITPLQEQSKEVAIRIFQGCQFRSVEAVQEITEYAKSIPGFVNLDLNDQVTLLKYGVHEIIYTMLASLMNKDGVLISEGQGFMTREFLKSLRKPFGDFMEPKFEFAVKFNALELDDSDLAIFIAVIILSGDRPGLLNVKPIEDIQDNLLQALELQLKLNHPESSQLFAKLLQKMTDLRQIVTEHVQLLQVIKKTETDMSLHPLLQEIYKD
In short: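 Ratio of 518 nm to 488 nm time-resolved emission after a 1 h room-temperature incubation, in competition format with GST-PPARG ligand-binding domain. Values are expressed as 100% minus compound-to-vehicle ratio and related to rosiglitazone binding.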

[2] = molecular target: T2, CYP 3A4 (Homo sapiens, UniProt P08684); assay: CYP (cytochrome P450)-suppressing effect, BD GENTEST kit; format: in vitro ADME
T2 construct: purchased BD GENTEST 459500
Protocol: (§1) To evaluate the CYP (cytochrome P450)-suppressing activity of the compounds prepared in the examples of the invention, the following experiment was performed.
(§2) The analysis of CYP1A2, 2C19, and 3A4 suppressing activity was performed by using a BD GENTEST (459100, 459400, and 459500) kit, and the analysis of CYP 2C9- and 2D6-suppressing activity was performed by using an Invitrogen (P2861 and P2862) kit.
(§3) When the BD GENTEST kit was used, the compounds of the present invention were diluted in acetonitrile at the final concentration of 50×. The NADPH-Cofactor mix was prepared by diluting the Cofactor, G6PDH, and control protein provided by the kit in DW according to the instructed concentration. 4 μL of the compound of the example (50×) was mixed with 96 μL of NADPH-Cofactor mix in a 96-well plate, followed by pre-incubation in a 37° C. incubator for 10 minutes.
(§4) The enzyme/substrate mixture was diluted in the buffer (0.5 M potassium phosphate, pH 7.4) provided by the kit according to the instructed concentration. Each CYP450 enzyme substrate was diluted in DW at a desired concentration respectively according to the corresponding types of CYP450. 100 μL of the enzyme/substrate mixture was loaded in the plate when the pre-incubation had been completed, followed by reaction in a 37° C. incubator for 15 minutes (1A2) and 30 minutes (3A4 and 2C19). Upon completion of the reaction, the mixture was transferred to a white plate, and the fluorescent wavelength was measured with a microplate reader (1A2, 2C19 excitation 410 nm, emission 460 nm; 3A4, excitation 409 nm, emission 530 nm).
(§5) The test results were calculated by the following formula:
(§6) (1−(fluorescence value of the test material/fluorescence value of the vehicle))×100%.

[3] = molecular target: T3, CYP 2C19 (Homo sapiens, UniProt P33261); assay: as above; format: in vitro ADME
T3 construct: purchased BD GENTEST 459400
Protocol: as §1, §2, §3, §4, §5, §6

[4] = molecular target: T4, CYP1A2 (Homo sapiens, UniProt P05177); assay: as above; format: in vitro ADME
T4 construct: purchased BD GENTEST 459100
T4 sequence (P05177 1-516): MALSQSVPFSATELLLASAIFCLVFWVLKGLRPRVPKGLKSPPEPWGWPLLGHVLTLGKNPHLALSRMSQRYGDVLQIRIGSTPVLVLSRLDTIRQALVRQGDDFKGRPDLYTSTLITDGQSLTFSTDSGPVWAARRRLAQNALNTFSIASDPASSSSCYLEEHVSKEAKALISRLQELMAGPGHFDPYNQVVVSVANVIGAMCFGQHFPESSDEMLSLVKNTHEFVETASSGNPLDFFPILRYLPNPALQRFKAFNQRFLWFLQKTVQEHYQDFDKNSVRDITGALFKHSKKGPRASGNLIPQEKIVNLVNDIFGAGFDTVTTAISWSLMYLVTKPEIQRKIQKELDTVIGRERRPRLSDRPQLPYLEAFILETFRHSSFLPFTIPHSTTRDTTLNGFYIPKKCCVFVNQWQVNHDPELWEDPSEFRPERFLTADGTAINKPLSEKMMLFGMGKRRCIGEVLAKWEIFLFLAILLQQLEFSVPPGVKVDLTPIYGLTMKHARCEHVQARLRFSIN
Protocol: as §1, §2, §3, §4, §5, §6

[5] = test system: CYP isozymes 1A2, 2C9, 2C19, and 2D6; assay: CYP suppression compared with comparative examples (Table 3); format: in vitro ADME; conditions: result in words
Protocol: as §1, §2
(§7) When the Invitrogen kit was used, the compounds of the present invention were diluted in Vivid CYP450 reaction buffer (1×) at the final concentration of 2.5×. The P450 BACULOSOMES sample and Regeneration system (100×) were diluted in Vivid CYP450 reaction buffer (1×) at different proper concentrations. 80 μL of the compound of the invention (2.5×) and […] of the diluted P450 BACULOSOMES sample mixture were mixed in a U-bottom 96-well plate, followed by pre-incubation for 10 minutes. Vivid CYP450 Substrate and NADP+ (100×) were diluted in Vivid CYP450 reaction buffer (1×) at a desired concentration, respectively, according to their corresponding types of CYP450 and substrates. 20 μL of Substrate-NADP+ mix was loaded in the plate when the pre-incubation had been completed, followed by reaction for 1 hour. Upon completion of the reaction, the reaction mixture was transferred in a white plate and fluorescent wavelength was measured with a microplate reader (2C9 excitation 415 nm, emission 460 nm, 2D6 excitation 400 nm, emission 502 nm).
as §3, §4, §5, §6

[6] = molecular target: T5, CYP 2C9 (Homo sapiens, UniProt P11712); assay: CYP (cytochrome P450)-suppressing effect, Invitrogen Vivid kit; format: in vitro ADME
T5 construct: purchased Invitrogen P2861
Protocol: as §1, §2, §7, §5, §6

[7] = molecular target: T6, CYP 2D6 (Homo sapiens, UniProt P10635); assay: as above; format: in vitro ADME
T6 construct: purchased Invitrogen P2862
Protocol: as §1, §2, §7, §5, §6

T6 sequence (P10635 whole entry): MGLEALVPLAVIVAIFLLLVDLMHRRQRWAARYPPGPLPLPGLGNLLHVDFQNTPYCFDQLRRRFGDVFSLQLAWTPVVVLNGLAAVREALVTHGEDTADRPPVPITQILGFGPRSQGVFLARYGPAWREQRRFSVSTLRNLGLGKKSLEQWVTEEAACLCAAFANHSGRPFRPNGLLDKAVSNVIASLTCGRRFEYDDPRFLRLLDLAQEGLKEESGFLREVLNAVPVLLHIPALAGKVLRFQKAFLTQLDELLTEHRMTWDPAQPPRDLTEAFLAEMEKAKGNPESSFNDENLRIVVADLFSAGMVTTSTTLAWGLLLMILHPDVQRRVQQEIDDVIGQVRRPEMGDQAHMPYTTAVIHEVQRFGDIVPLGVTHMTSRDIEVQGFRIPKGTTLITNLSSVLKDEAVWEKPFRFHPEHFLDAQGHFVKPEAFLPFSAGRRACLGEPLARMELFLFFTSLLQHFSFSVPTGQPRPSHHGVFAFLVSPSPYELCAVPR
T2 sequence (P08684 whole entry): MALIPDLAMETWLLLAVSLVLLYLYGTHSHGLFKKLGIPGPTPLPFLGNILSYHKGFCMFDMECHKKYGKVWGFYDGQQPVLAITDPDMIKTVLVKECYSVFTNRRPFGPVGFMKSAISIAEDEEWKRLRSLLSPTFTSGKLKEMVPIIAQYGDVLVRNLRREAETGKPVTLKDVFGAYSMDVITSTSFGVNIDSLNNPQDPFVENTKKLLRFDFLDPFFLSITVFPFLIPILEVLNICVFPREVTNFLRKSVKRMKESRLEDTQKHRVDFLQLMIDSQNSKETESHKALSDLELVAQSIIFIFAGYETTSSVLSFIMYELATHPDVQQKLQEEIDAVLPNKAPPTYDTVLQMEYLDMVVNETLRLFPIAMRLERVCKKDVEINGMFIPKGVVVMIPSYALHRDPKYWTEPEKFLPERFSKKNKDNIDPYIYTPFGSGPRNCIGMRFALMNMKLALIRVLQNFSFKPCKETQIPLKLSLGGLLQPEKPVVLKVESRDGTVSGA
T5 sequence (P11712 whole entry): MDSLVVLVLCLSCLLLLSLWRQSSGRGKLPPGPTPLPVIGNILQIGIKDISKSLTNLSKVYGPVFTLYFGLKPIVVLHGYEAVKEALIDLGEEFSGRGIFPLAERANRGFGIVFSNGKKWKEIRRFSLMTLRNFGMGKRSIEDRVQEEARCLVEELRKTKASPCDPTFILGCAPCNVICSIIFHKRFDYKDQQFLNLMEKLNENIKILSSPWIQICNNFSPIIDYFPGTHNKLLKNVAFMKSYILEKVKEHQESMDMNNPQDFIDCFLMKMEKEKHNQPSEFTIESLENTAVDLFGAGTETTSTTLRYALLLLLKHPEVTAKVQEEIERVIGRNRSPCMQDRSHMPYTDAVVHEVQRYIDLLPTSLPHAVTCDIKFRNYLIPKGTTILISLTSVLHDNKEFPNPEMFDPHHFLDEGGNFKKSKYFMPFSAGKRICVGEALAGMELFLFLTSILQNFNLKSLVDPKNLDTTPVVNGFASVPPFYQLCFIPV
T3 sequence (P33261 whole entry): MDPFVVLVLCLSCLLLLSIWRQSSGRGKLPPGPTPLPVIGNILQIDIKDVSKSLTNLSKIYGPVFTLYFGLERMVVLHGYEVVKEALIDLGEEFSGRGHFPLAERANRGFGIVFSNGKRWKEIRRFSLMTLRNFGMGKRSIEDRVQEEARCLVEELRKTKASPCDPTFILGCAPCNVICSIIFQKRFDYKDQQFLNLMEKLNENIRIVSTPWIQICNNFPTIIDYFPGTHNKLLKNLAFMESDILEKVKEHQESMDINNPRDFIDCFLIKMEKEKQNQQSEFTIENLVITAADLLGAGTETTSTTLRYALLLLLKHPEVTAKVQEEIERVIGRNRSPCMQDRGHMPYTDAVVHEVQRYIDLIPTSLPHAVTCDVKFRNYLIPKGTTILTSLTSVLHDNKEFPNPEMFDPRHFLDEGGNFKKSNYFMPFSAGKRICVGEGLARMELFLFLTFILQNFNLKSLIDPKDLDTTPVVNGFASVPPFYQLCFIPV

| Binding assay (1 μLM) [1] | CYP(10 μL, %) 3A4 [2] [%] | CYP(10 μL, %) 2C19 [3] [%] | CYP(10 μL, %) 1A2 [4] [%] | CYP(10 μL, %) 2C9 [6] [%] | CYP(10 μL, %) 2D6 [7] [%] | Compound | suppression of CYP isozymes 1A2, 2C9, 2C19, and 2D6 compared with SR1664 and SR1824 [5] |
| --- | --- | --- | --- | --- | --- | --- | --- |
| +++ | 60.95 | 53.50 | 94.00 | 63.24 | 80.63 | C[C@H](NC(=O)c1ccc2c(c1)CCCN2Cc1cc(-c2ccccc2C(N)=O)ccc1F)c1ccc([N+](=O)[O-])cc1 [Example 139, (S)-1-((2′-carbamoyl-4-fluoro-[1,1′-biphenyl]-3-yl)methyl)-N-(1-(4-nitrophenyl)ethyl)-1,2,3,4-tetrahydroquinoline-6-carboxamide] | less than the compounds of the comparative examples; also recorded: less strongly than the compounds of the Comparative Examples |
| +++ | 70.42 | 59.55 | 94.56 | 56.40 | 97.07 | C[C@H](NC(=O)c1ccc2c(c1)CCCN2Cc1ccc(-c2ccccc2C(N)=O)cc1)c1ccc2ccccc2c1 [Example 44, (S)-1-((2′-carbamoyl-[1,1′-biphenyl]-4-yl)methyl)-N-(1-(naphthalene-2-yl)ethyl)-1,2,3,4-tetrahydroquinoline-6-carboxamide] | less than the compounds of the comparative examples; also recorded: less strongly than the compounds of the Comparative Examples |
| +++ | 59.17 | 75.69 | 100.32 | 58.87 | 82.59 | C[C@H](NC(=O)c1ccc2c(c1)CCCN2Cc1ccc(-c2ccccc2C(=O)[O-])cc1)c1ccc(C#N)cc1.[Na+] [Example 57, sodium (S)-4′-((6-((1-(4-cyanophenyl)ethyl)carbamoyl)-3,4-dihydroquinoline-1(2H)-yl)methyl)-[1,1′-biphenyl]-2-carboxylate] | less than the compounds of the comparative examples; also recorded: less strongly than the compounds of the Comparative Examples |
| +++ | 58.18 | 52.68 | 98.84 | 51.03 | 75.73 | C[C@H](NC(=O)c1ccc2c(c1)CCCN2Cc1ccc(-c2ccccc2C(N)=O)cc1)c1ccc(F)cc1 [Example 36, (S)-1-((2′-carbamoyl-[1,1′-biphenyl]-4-yl)methyl)-N-(1-(4-fluorophenyl)ethyl)-1,2,3,4-tetrahydroquinoline-6-carboxamide] | less than the compounds of the comparative examples; also recorded: less strongly than the compounds of the Comparative Examples |
| +++ | 77.73 | 59.33 | 97.62 | 63.87 | 95.56 | C[C@H](NC(=O)c1ccc2c(c1)CCCN2Cc1ccc(-c2ccccc2C(N)=O)cc1F)c1ccc2ccccc2c1 [Example 115, (S)-1-((2′-carbamoyl-3-fluoro-[1,1′-biphenyl]-4-yl)methyl)-N-(1-(naphthalene-2-yl)ethyl)-1,2,3,4-tetrahydroquinoline-6-carboxamide] | less than the compounds of the comparative examples; also recorded: less strongly than the compounds of the Comparative Examples |
| + | 81.98 | 91.36 | 102.89 | 80.68 | 83.97 | C[C@H](NC(=O)c1ccc2c(c1)OCCN2Cc1ccc(-c2ccccc2C(=O)O)cc1)c1ccc(C#N)cc1 [Example 74, (S)-4′-((7-((1-(4-cyanophenyl)ethyl)carbamoyl)-2H-benzo[b][1,4]oxazine-4(3H)-yl)methyl)-[1,1′-biphenyl]-2-carboxylic acid] | less than the compounds of the comparative examples; also recorded: less strongly than the compounds of the Comparative Examples |
| ++ | 71.24 | 79.96 | 97.99 | 64.28 | 86.13 | C[C@H](NC(=O)c1ccc2c(c1)CCCN2Cc1ccc(-c2ccccc2C(=O)O)cc1)c1ccc(C#N)cc1 [Example 14, (S)-4′-((6-((1-(4-cyanophenyl)ethyl)carbamoyl)-3,4-dihydroquinoline-1(2H)-yl)methyl)-[1,1′-biphenyl]-2-caboxylic acid] | less than the compounds of the comparative examples; also recorded: less strongly than the compounds of the Comparative Examples |
| – | 71.88 | 32.45 | 64.12 | 6.43 | 68.34 | Cc1c(C)n(Cc2ccc(-c3ccccc3C(=O)O)cc2)c2ccc(C(=O)NC(C)c3ccc(Br)cc3)cc12 (stereo not shown) [2 (SR1824), SR1824, reference compound] | – |

| Compound | Binding assay (1 μLM) [1] | CYP(10 μL, %) 3A4 [2] [%] | CYP(10 μL, %) 2C19 [3] [%] | CYP(10 μL, %) 1A2 [4] [%] | CYP(10 μL, %) 2C9 [6] [%] | CYP(10 μL, %) 2D6 [7] [%] | suppression of CYP isozymes 1A2, 2C9, 2C19, and 2D6 compared with SR1664 and SR1824 [5] |
| --- | --- | --- | --- | --- | --- | --- | --- |
| C[C@H](NC(=O)c1ccc2c(c1)OCCN2Cc1ccc(-c2ccccc2C(=O)O)cc1)c1ccccc1 [Example 58, (S)-4′-((7-((1-phenylethyl)carbamoyl)-2H-benzo[b][1,4]oxazine-4(3H)-yl)methyl)-[1,1′-biphenyl]-2-carboxylic acid] | + | 56.92 | 70.53 | 100.93 | 57.47 | 55.23 | less than the compounds of the comparative examples; also recorded: less strongly than the compounds of the Comparative Examples |
